From ChEMBL document CHEMBL1177848, “Synthesis of novel 6,6a,7,8-tetrahydro-5H-naphtho[1,2-e]pyrimido[4,5-b][1,4]diazepines under microwave irradiation as potential anti-tumor agents” (2010)
Calls of active or inactive are those of the source.

How the values were obtained:
Format in all cases: functional, cell-based
RPMI-8226 = experiment: Growth inhibition of human RPMI8226 cells at 1 uM after 48 hrs by sulforhodamine B assay
SR = experiment: Growth inhibition of human SR cells at 1 uM after 48 hrs by sulforhodamine B assay
CCRF-CEM = experiment: Growth inhibition of human CCRF-CEM cells at 1 uM after 48 hrs by sulforhodamine B assay
HL-60 = experiment: Growth inhibition of human HL-60(TB) cells at 1 uM after 48 hrs by sulforhodamine B assay
K562 = experiment: Growth inhibition of human K562 cells at 1 uM after 48 hrs by sulforhodamine B assay
MOLT-4 = experiment: Growth inhibition of human MOLT4 cells at 1 uM after 48 hrs by sulforhodamine B assay
EKVX = experiment: Growth inhibition of human EKVX cells at 1 uM after 48 hrs by sulforhodamine B assay
HOP-92 = experiment: Growth inhibition of human HOP92 cells at 1 uM after 48 hrs by sulforhodamine B assay
NCI-H226 = experiment: Growth inhibition of human NCI-H226 cells at 1 uM after 48 hrs by sulforhodamine B assay
NCI-H23 = experiment: Growth inhibition of human NCI-H23 cells at 1 uM after 48 hrs by sulforhodamine B assay
NCI-H460 = experiment: Growth inhibition of human NCI-H460 cells at 1 uM after 48 hrs by sulforhodamine B assay
NCI-H522 = experiment: Growth inhibition of human NCI-H522 cells at 1 uM after 48 hrs by sulforhodamine B assay
HOP-62 = experiment: Growth inhibition of human HOP62 cells at 1 uM after 48 hrs by sulforhodamine B assay
NCI-H322M = experiment: Growth inhibition of human […] cells at 1 uM after 48 hrs by sulforhodamine B assay
A549 = experiment: Growth inhibition of human A549 cells at 1 uM after 48 hrs by sulforhodamine B assay
COLO 205 = experiment: Growth inhibition of human COLO205 cells at 1 uM after 48 hrs by sulforhodamine B assay
HCT-116 = experiment: Growth inhibition of human HCT116 cells at 1 uM after 48 hrs by sulforhodamine B assay
HCT-15 = experiment: Growth inhibition of human HCT15 cells at 1 uM after 48 hrs by sulforhodamine B assay
HT-29 = experiment: Growth inhibition of human HT-29 cells at 1 uM after 48 hrs by sulforhodamine B assay
KM12 = experiment: Growth inhibition of human KM12 cells at 1 uM after 48 hrs by sulforhodamine B assay
SW-620 = experiment: Growth inhibition of human SW620 cells at 1 uM after 48 hrs by sulforhodamine B assay
HCC 2998 = experiment: Growth inhibition of human HCC2998 cells at 1 uM after 48 hrs by sulforhodamine B assay
SF-295 = experiment: Growth inhibition of human SF295 cells at 1 uM after 48 hrs by sulforhodamine B assay
SF-539 = experiment: Growth inhibition of human SF539 cells at 1 uM after 48 hrs by sulforhodamine B assay
U-251 = experiment: Growth inhibition of human U251 cells at 1 uM after 48 hrs by sulforhodamine B assay
SF-268 = experiment: Growth inhibition of human SF268 cells at 1 uM after 48 hrs by sulforhodamine B assay
SF530 = experiment: Growth inhibition of human SF530 cells at 1 uM after 48 hrs by sulforhodamine B assay
SNB-75 = experiment: Growth inhibition of human SNB75 cells at 1 uM after 48 hrs by sulforhodamine B assay
LOX IMVI = experiment: Growth inhibition of human LOXIMVI cells at 1 uM after 48 hrs by sulforhodamine B assay
Malme-3M = experiment: Growth inhibition of human MALME-3M cells at 1 uM after 48 hrs by sulforhodamine B assay
MDA-MB-435 = experiment: Growth inhibition of human MDA-MB-435 cells at 1 uM after 48 hrs by sulforhodamine B assay
SK-MEL-5 = experiment: Growth inhibition of human SK-MEL-5 cells at 1 uM after 48 hrs by sulforhodamine B assay
UACC-257 = experiment: Growth inhibition of human UACC257 cells at 1 uM after 48 hrs by sulforhodamine B assay
UACC-62 = experiment: Growth inhibition of human UACC62 cells at 1 uM after 48 hrs by sulforhodamine B assay
SK-MEL-2 = experiment: Growth inhibition of human SK-MEL-2 cells at 1 uM after 48 hrs by sulforhodamine B assay
M14 = experiment: Growth inhibition of human M14 cells at 1 uM after 48 hrs by sulforhodamine B assay
SK-MEL-28 = experiment: Growth inhibition of human SK-MEL-28 cells at 1 uM after 48 hrs by sulforhodamine B assay
IGROV-1 = experiment: Growth inhibition of human IGROV1 cells at 1 uM after 48 hrs by sulforhodamine B assay
OVCAR-3 = experiment: Growth inhibition of human OVCAR-3 cells at 1 uM after 48 hrs by sulforhodamine B assay
OVCAR-4 = experiment: Growth inhibition of human OVCAR4 cells at 1 uM after 48 hrs by sulforhodamine B assay
NCI/ADR-RES = experiment: Growth inhibition of human NCI/ADR-RES cells at 1 uM after 48 hrs by sulforhodamine B assay
OVCAR-8 = experiment: Growth inhibition of human OVCAR8 cells at 1 uM after 48 hrs by sulforhodamine B assay
A498 = experiment: Growth inhibition of human A498 cells at 1 uM after 48 hrs by sulforhodamine B assay
ACHN = experiment: Growth inhibition of human ACHN cells at 1 uM after 48 hrs by sulforhodamine B assay
CAKI-1 = experiment: Growth inhibition of human Caki1 cells at 1 uM after 48 hrs by sulforhodamine B assay
RXF 393 = experiment: Growth inhibition of human RXF393 cells at 1 uM after 48 hrs by sulforhodamine B assay
SN12C = experiment: Growth inhibition of human SN12C cells at 1 uM after 48 hrs by sulforhodamine B assay
TK-10 = experiment: Growth inhibition of human TK10 cells at 1 uM after 48 hrs by sulforhodamine B assay
UO-31 = experiment: Growth inhibition of human UO31 cells at 1 uM after 48 hrs by sulforhodamine B assay
786-0 = experiment: Growth inhibition of human 786-0 cells at 1 uM after 48 hrs by sulforhodamine B assay
PC-3 = experiment: Growth inhibition of human PC3 cells at 1 uM after 48 hrs by sulforhodamine B assay
DU-145 = experiment: Growth inhibition of human DU145 cells at 1 uM after 48 hrs by sulforhodamine B assay
MCF7 = experiment: Growth inhibition of human MCF7 cells at 1 uM after 48 hrs by sulforhodamine B assay
MDA-MB-231 = experiment: Growth inhibition of human MDA-MB-231 cells at 1 uM after 48 hrs by sulforhodamine B assay
BT-549 = experiment: Growth inhibition of human BT549 cells at 1 uM after 48 hrs by sulforhodamine B assay
T47D = experiment: Growth inhibition of human T47D cells at 1 uM after 48 hrs by sulforhodamine B assay
MDA-MB-468 = experiment: Growth inhibition of human MDA-MB-468 cells at 1 uM after 48 hrs by sulforhodamine B assay
Hs-578T = experiment: Growth inhibition of human Hs 578T cells at 1 uM after 48 hrs by sulforhodamine B assay

Measured: growth inhibition (GI)

Nc1ncnc2c1N=C1c3ccccc3CCC1C(c1ccccc1)N2 (stereo not drawn)
active: all assays above
